# Data as given in US8653111B2, “Substituted dihydropyrazolones for treating cardiovascular and hematological diseases” (Bayer Intellectual Property GmbH, priority 2006, dated 2014).
# Counter-ions that a name gives are not always drawn.
# Biological target: HIF prolyl hydroxylase
# Experiment: Inhibition of the activity of HIF prolyl hydroxylase (VBC complex binding to hydroxylated peptide substrate)
# Format: biochemical
# Settings: cell lysate containing prolyl hydroxylase, peptide biotin-DLDLEMLAPYIPMDDDFQL as substrate
# Procedure: 1. In vitro Tests for Determination of the Activity and Selectivity of HIF Prolyl 4-Hydroxylase Inhibitors 1.a) Inhibition of the Activity of HIF Prolyl Hydroxylase:
# Hydroxylated HIF bonds specifically to the von Hippel-Lindau protein-elongin B-elongin C complex (VBC complex). This interaction occurs only if HIF is hydroxylated on a conserved prolyl radical. It is the basis for the biochemical determination of HIF prolyl hydroxylase activity. The test is carried out as described [Oehme F., Jonghaus W., Narouz-Ott L., Huetter J., Flamme I., Anal. Biochem. 330 (1), 74-80 (2004)]:
# A clear 96-well microtiter plate coated with NeutrAvidin HBC (Pierce) is incubated with blocker casein for 30 minutes. The plate is then washed three times with 200 μl each time of wash buffer (50 mM Tris, pH 7.5, 100 mM NaCl, 10% (v/v) blocker casein, 0.05% (v/v) Tween 20) per well. The peptide biotin-DLDLEMLAPYIPMDDDFQL (Eurogentec, 4102 Seraing, Belgium) is added in a concentration of 400 nM in 100 μl wash buffer. This peptide serves as a substrate for the prolyl hydroxylation and is bonded to the microtiter plate. After incubation for 60 minutes, the plate is washed three times with wash buffer, incubated with 1 mM biotin in blocker casein for 30 minutes and then washed again three times with wash buffer.
# To carry out the prolyl hydroxylase reaction, the peptide substrate bonded to the plate is incubated with a cell lysate containing prolyl hydroxylase for 1 to 60 minutes. The reaction takes place in 100 μl reaction buffer (20 mM Tris, pH 7.5, 5 mM KCl, 1.5 mM MgCl2, 1 μM-1 mM 2-oxoglutarate, 10 μM FeSO4, 2 mM ascorbate) at room temperature. The reaction mixture moreover contains various concentrations of the prolyl hydroxylase inhibitor to be tested. The test substance is preferably, but not exclusively, employed at concentrations of between 1 nM and 100 μM. The reaction is stopped by washing the plate three times with wash buffer.
# For quantitative determination of the prolyl hydroxylation, a fusion protein which contains both thioredoxin from E. coli and the VBC complex in 80 μl bonding buffer (50 mM Tris, pH 7.5, 120 mM NaCl) is added. After 15 minutes, 10 μl of a solution of polyclonal anti-thioredoxin antibodies from rabbit in bonding buffer are added. After a further 30 minutes, 10 μl of a solution of anti-rabbit immunoglobulin coupled to horseradish peroxidase in bonding buffer are added. After incubation at room temperature for 30 minutes, the plate is washed three times with wash buffer in order to remove non-bonded VBC complex and antibodies. To determine the amount of bonded VBC complex, the plate is incubated with TMB for 15 minutes. The color reaction is ended by addition of 100 μl 1 M sulfuric acid. The amount of bonded VBC complex is determined by measurement of the optical density at 450 nm. It is proportional to the amount of hydroxylated proline in the peptide substrate.
# Alternatively, a VBC complex coupled to europium (Perkin Elmer) can be used for detection of the prolyl hydroxylation. In this case, the amount of bonded VBC complex is determined by the fluorescence with respect to time. The use of VBC complex labeled with [^35S]-methionine is moreover possible. For this, the radioactively labeled VBC complex can be prepared by in vitro transcription-translation in reticulocyte lysate.
row,IC50 [nM],SMILES
1,1200,O=c1c(-c2nnc(C(F)(F)F)s2)c[nH]n1-c1ccccn1 [Example 5]
2,340,"Cc1ccnc(-n2[nH]cc(-n3ccnn3)c2=O)c1 [Example 7, 2-(4-Methylpyridin-2-yl)-4-(1H-1,2,3-triazol-1-yl)-1,2-dihydro-3H-pyrazol-3-one hydrochloride]"
3,500,"O=c1c(-n2ccnc2)c[nH]n1-c1cc(N2CCCCC2)ncn1 [Example 10, 4-(1H-Imidazol-1-yl)-2-(6-piperidin-1-ylpyrimidin-4-yl)-1,2-dihydro-3H-pyrazol-3-one]"
4,750,"O=c1c(-n2cnc(C(F)(F)F)c2)c[nH]n1-c1ccc(CO)cn1 [Example 12, 2-[5-(Hydroxymethyl)pyridin-2-yl]-4-[4-(trifluoromethyl)-1H-imidazol-1-yl]-1,2-dihydro-3H-pyrazol-3-one]"
5,560,"O=c1c(-n2ccnn2)c[nH]n1-c1cc(C2CC2)ncn1 [Example 17, 2-(6-Cyclopropylpyrimidin-4-yl)-4-(1H-1,2,3-triazol-1-yl)-1,2-dihydro-3H-pyrazol-3-one hydrochloride]"
6,1800,Cc1cn(-c2c[nH]n(-c3cnccn3)c2=O)nn1 [Example 43]
7,780,CC(C)c1cn(-c2c[nH]n(-c3ccc(CO)cn3)c2=O)nn1 [Example 45]
8,1400,Cc1cc(-c2c[nH]n(-c3ccccn3)c2=O)on1 [Example 50]
9,1400,CCc1cc(-n2[nH]cc(-n3cnc(C(F)(F)F)c3)c2=O)ncn1 [Example 60]
10,1100,Cc1cc(-n2[nH]cc(-n3ccnn3)c2=O)ncc1Br [Example 61]
11,50,"CC(C)(C)OC(=O)c1ccc(-n2[nH]cc(-n3ccnn3)c2=O)nc1 [Example 62, 6-[5-Oxo-4-(1H-1,2,3-triazol-1-yl)-2,5-dihydro-1H-pyrazol-1-yl]pyridine-3-carboxylic acid tert-butyl ester hydrochloride]"
12,490,"O=c1c(-n2ccnn2)c[nH]n1-c1cc(N2CCOCC2)ncn1 [Example 72, 2-(6-Morpholin-4-ylpyrimidin-4-yl)-4-(1H-1,2,3-triazol-1-yl)-1,2-dihydro-3H-pyrazol-3-one hydrochloride]"
13,1900,"O=c1c(-n2ccnn2)c[nH]n1-c1cc(C(F)(F)F)ccn1 [Example 83, 4-(1H-1,2,3-Triazol-1-yl)-2-[4-(trifluoromethyl)pyridin-2-yl]-1,2-dihydro-3H-pyrazol-3-one hydrochloride]"
14,190,"CC(C)(C)COc1ccc(-n2[nH]cc(-n3ccnn3)c2=O)nc1 [Example 85, 2-[5-(2,2-Dimethylpropoxy)pyridin-2-yl]-4-(1H-1,2,3-triazol-1-yl)-1,2-dihydro-3H-pyrazol-3-one hydrochloride]"
15,2800,"Cc1cnc(-n2[nH]cc(-n3ccnc3)c2=O)cc1C [Example 91, 2-(4,5-Dimethylpyridin-2-yl)-4-(1H-imidazol-1-yl)-1,2-dihydro-3H-pyrazol-3-one hydrochloride]"
16,1700,"O=c1c(-n2ccnc2)c[nH]n1-c1cc(N2CC(O)C2)ncn1 [Example 101, 2-[6-(3-Hydroxyazetidin-1-yl)pyrimidin-4-yl]-4-(1H-imidazol-1-yl)-1,2-dihydro-3H-pyrazol-3-one hydrochloride]"
17,350,"CCSc1cc(-n2[nH]cc(-n3ccnn3)c2=O)ncn1 [Example 103, 2-[6-(Ethylsulfanyl)pyrimidin-4-yl]-4-(1H-1,2,3-triazol-1-yl)-1,2-dihydro-3H-pyrazol-3-one hydrochloride]"
18,740,O=c1c(-n2ccnn2)c[nH]n1-c1cc(N2CCSCC2)ncn1 [Example 113]
19,360,CC1CCN(c2cc(-n3[nH]cc(-n4ccnn4)c3=O)ncn2)CC1 [Example 129]
20,690,COC1CCCN(c2cc(-n3[nH]cc(-n4ccnc4)c3=O)ncn2)C1 (centres unmarked) [Example 166]
